Measured values as given in ChEMBL document CHEMBL1129734, “Synthesis and structure-activity relationships of a new model of arylpiperazines. 1. 2-[[4-(o-methoxyphenyl)piperazin-1-yl]methyl]-1, 3-dioxoperhydroimidazo[1,5-alpha]pyridine: a selective 5-HT1A receptor agonist” (J Med Chem, 1996).

Columns and labels:
[1] = molecular target: T1, 5-hydroxytryptamine receptor 1A (Rattus norvegicus, UniProt P19327); assay: Binding affinity towards rat 5-hydroxytryptamine 1A receptor using [3H]8-OH-DPAT radioligand.
T1 sequence (P19327 whole entry): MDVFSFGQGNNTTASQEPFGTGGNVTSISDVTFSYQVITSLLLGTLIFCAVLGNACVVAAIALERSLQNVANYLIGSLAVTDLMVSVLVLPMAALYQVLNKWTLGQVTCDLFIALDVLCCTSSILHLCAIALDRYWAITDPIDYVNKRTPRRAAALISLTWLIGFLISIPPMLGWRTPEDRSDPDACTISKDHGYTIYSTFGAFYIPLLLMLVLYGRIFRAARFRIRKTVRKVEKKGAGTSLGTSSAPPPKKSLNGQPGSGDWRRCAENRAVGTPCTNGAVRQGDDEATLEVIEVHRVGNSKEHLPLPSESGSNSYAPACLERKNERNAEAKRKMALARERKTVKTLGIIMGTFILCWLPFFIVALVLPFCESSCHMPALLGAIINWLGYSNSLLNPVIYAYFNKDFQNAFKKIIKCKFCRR

[2] = molecular target: T2, Adrenergic receptor alpha-1 (Rattus norvegicus, UniProt P15823+P23944+P43140); assay: Binding affinity towards alpha-1 adrenergic receptor using [3H]prazosin radioligand.; type: protein assay
T2 sequence (P15823 whole entry): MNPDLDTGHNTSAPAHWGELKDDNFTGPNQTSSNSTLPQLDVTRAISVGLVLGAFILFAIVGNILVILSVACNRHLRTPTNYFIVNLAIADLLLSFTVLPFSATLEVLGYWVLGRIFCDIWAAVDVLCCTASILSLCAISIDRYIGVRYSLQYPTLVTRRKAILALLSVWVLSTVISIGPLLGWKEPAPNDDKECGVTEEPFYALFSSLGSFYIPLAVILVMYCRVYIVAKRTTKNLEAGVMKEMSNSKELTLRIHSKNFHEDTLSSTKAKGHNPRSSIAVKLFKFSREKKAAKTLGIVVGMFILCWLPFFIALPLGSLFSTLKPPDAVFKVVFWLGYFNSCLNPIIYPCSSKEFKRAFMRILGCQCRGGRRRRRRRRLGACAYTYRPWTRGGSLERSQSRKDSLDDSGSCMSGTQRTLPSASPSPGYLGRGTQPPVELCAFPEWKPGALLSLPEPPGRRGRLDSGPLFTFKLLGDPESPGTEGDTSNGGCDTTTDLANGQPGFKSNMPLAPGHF
T2 sequence (P23944 whole entry): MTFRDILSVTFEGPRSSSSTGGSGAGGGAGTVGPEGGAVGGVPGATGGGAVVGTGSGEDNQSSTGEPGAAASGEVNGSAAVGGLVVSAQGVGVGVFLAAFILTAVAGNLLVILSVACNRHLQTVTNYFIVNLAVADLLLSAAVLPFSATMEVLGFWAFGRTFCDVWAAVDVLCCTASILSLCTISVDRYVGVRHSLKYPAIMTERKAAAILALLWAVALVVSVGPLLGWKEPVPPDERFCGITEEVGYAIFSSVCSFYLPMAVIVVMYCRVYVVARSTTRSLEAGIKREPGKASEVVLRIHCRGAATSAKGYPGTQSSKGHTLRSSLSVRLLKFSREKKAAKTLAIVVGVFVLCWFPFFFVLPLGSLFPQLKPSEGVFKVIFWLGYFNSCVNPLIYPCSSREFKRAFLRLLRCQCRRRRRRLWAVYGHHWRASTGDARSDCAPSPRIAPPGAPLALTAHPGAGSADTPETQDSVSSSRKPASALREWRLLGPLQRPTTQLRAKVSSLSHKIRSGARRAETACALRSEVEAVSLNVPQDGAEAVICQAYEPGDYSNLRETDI
T2 sequence (P43140 whole entry): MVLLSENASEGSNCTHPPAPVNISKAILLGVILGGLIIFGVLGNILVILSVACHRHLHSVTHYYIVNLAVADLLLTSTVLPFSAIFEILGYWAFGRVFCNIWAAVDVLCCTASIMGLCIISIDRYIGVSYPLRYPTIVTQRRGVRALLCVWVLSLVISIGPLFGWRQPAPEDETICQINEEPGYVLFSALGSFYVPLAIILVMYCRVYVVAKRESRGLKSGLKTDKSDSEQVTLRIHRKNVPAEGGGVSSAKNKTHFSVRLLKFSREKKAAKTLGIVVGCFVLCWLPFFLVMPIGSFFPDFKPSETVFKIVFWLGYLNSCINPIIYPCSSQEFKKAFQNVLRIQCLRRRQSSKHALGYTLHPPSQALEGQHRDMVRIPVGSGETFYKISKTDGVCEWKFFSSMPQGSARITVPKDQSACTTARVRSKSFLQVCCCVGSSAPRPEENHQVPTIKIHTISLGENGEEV

D(2) dopamine receptor = D(2) dopamine receptor (Rattus norvegicus, UniProt P61169); assay: Binding affinity towards dopamine receptor D2 using [3H]-raclopride radioligand.
Chain of D(2) dopamine receptor (P61169 whole entry): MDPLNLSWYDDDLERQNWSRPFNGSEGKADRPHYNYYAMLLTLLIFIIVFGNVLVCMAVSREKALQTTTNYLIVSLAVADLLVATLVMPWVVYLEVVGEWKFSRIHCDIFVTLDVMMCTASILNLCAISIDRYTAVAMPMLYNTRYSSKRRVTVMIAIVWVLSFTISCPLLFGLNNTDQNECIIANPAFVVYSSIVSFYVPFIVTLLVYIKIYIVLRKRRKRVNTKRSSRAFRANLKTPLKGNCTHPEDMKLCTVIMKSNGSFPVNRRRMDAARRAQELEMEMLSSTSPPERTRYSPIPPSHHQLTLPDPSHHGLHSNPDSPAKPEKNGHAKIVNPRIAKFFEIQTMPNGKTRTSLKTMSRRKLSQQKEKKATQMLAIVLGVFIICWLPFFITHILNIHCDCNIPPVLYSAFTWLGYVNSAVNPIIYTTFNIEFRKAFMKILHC

Row | SMILES | Ki [1] | Ki [2] | Ki (D(2) dopamine receptor)
1 | O=C1C2CCCN2C(=O)N1CCCCN1CCN(c2cccc(Cl)c2)CC1 (stereo not drawn) | 0.0113 µM | 0.0096 µM | 0.151 µM
2 | COc1ccccc1N1CCN(CCCCN2C(=O)c3ccccc3C2=O)CC1 [NAN-190] |  |  | 0.064 µM
3 | O=C1C2CCCCN2C(=O)N1CN1CCN(c2ccc(F)cc2)CC1 (stereo not drawn) | 0.444 µM | 0.869 µM | > 10 µM
4 | O=C1C2CCCCN2C(=O)N1CCN1CCN(c2ccc([N+](=O)[O-])cc2)CC1 (stereo not drawn) | > 10 µM | > 10 µM | > 10 µM
5 | O=C1C2CCCCN2C(=O)N1CCCN1CCN(c2ccc(F)cc2)CC1 (stereo not drawn) | 0.598 µM | 0.0258 µM | > 1 µM
6 | COc1ccccc1N1CCN(CCN2C(=O)C3CCCCN3C2=O)CC1 (stereo not drawn) | 0.0455 µM | 0.131 µM | 0.246 µM
7 | O=C1C2CCCCN2C(=O)N1CCCCN1CCN(c2ccc(F)cc2)CC1 (stereo not drawn) | 0.0579 µM | 0.0104 µM | 0.615 µM
8 | O=C1C2CCCCN2C(=O)N1CCCN1CCN(c2cccc(Cl)c2)CC1 (stereo not drawn) | 0.0536 µM | 0.0179 µM | > 1 µM
9 | O=C1C2CCCCN2C(=O)N1CCN1CCN(c2cccc(C(F)(F)F)c2)CC1 (stereo not drawn) | 0.0658 µM | > 1 µM | > 1 µM
10 | O=C1C2CCCN2C(=O)N1CN1CCN(c2ccc([N+](=O)[O-])cc2)CC1 (stereo not drawn) | > 1 µM | > 10 µM | > 10 µM
11 | O=C1C2CCCN2C(=O)N1CCN1CCN(c2ccccc2)CC1 (stereo not drawn) | > 1 µM | > 1 µM | > 1 µM
12 | COc1ccccc1N1CCN(CCCN2C(=O)C3CCCCN3C2=O)CC1 (stereo not drawn) | 0.0041 µM | 0.0099 µM | > 1 µM
13 | O=C1C2CCCN2C(=O)N1CN1CCN(c2cccc(Cl)c2)CC1 (stereo not drawn) | 0.0584 µM | 0.292 µM | > 10 µM
14 | COc1ccccc1N1CCN(CCCCN2C(=O)C3CCCN3C2=O)CC1 (stereo not drawn) | 0.0055 µM | 0.0083 µM | 0.107 µM
15 | O=C1C2CCCN2C(=O)N1CCCCN1CCN(c2ccccc2)CC1 (stereo not drawn) | 0.0248 µM | 0.0264 µM | 0.416 µM
16 | O=C1C2CCCN2C(=O)N1CCCN1CCN(c2cccc(C(F)(F)F)c2)CC1 (stereo not drawn) | 0.0038 µM | 0.109 µM | > 1 µM
17 | O=C1C2CCCN2C(=O)N1CCN1CCN(c2cccc(Cl)c2)CC1 (stereo not drawn) | 0.418 µM | 0.5 µM | > 1 µM
18 | O=C1C2CCCN2C(=O)N1CCCN1CCN(c2ccc([N+](=O)[O-])cc2)CC1 (stereo not drawn) | > 10 µM | > 1 µM | > 10 µM
19 | O=C1C2CCCCN2C(=O)N1CCCN1CCN(c2ccccc2)CC1 (stereo not drawn) | 0.154 µM | 0.0114 µM | > 1 µM
20 | O=C1C2CCCCN2C(=O)N1CCCCN1CCN(c2cccc(Cl)c2)CC1 (stereo not drawn) | 0.0072 µM | 0.0121 µM | 0.129 µM
21 | COc1ccccc1N1CCN(CCCCN2C(=O)C3CCCCN3C2=O)CC1 (stereo not drawn) | 0.0088 µM | 0.0086 µM | > 1 µM
22 | O=C1C2CCCCN2C(=O)N1CCCCN1CCN(c2ccc([N+](=O)[O-])cc2)CC1 (stereo not drawn) | > 1 µM | > 1 µM | > 1 µM
23 | O=C1C2CCCN2C(=O)N1CCCN1CCN(c2ccc(F)cc2)CC1 (stereo not drawn) | > 1 µM | 0.0252 µM | > 1 µM
24 | O=C1C2CCCN2C(=O)N1CN1CCN(c2ccc(F)cc2)CC1 (stereo not drawn) | 0.5 µM | > 1 µM | > 10 µM

Row | SMILES | Ki [1] | Ki [2] | Ki (D(2) dopamine receptor)
25 | O=C1C2CCCN2C(=O)N1CN1CCN(c2cccc(C(F)(F)F)c2)CC1 (stereo not drawn) | 0.12 µM | > 1 µM | > 1 µM
26 | O=C1C2CCCN2C(=O)N1CCCCN1CCN(c2cccc(C(F)(F)F)c2)CC1 (stereo not drawn) | 0.0024 µM | 0.0649 µM | > 1 µM
27 | COc1ccccc1N1CCN(CCCN2C(=O)C3CCCN3C2=O)CC1 (stereo not drawn) | 0.0044 µM | 0.0031 µM | > 1 µM
28 | O=C1C2CCCCN2C(=O)N1CN1CCN(c2ccccc2)CC1 (stereo not drawn) | 0.101 µM | > 1 µM | > 10 µM
29 | O=C1C2CCCCN2C(=O)N1CCCN1CCN(c2cccc(C(F)(F)F)c2)CC1 (stereo not drawn) | 0.0057 µM | 0.0904 µM | > 1 µM
30 | O=C1C2CCCN2C(=O)N1CCN1CCN(c2cccc(C(F)(F)F)c2)CC1 (stereo not drawn) | 0.123 µM | > 1 µM | > 1 µM
31 | O=C1C2CCCN2C(=O)N1CCN1CCN(c2ccc([N+](=O)[O-])cc2)CC1 (stereo not drawn) | > 10 µM | > 10 µM | > 10 µM
32 | O=C1C2CCCCN2C(=O)N1CCCN1CCN(c2ccc([N+](=O)[O-])cc2)CC1 (stereo not drawn) | > 10 µM | > 1 µM | > 10 µM
33 | O=C1C2CCCN2C(=O)N1CCCN1CCN(c2cccc(Cl)c2)CC1 (stereo not drawn) | 0.0559 µM | 0.0216 µM | > 1 µM
34 | O=C1C2CCCCN2C(=O)N1CCCCN1CCN(c2ccccc2)CC1 (stereo not drawn) |  | 0.0186 µM | > 1 µM
35 | O=C1C2CCCCN2C(=O)N1CCN1CCN(c2ccccc2)CC1 (stereo not drawn) | > 1 µM | > 1 µM | > 1 µM
36 | COc1ccccc1N1CCN(CCN2C(=O)C3CCCN3C2=O)CC1 (stereo not drawn) | 0.234 µM | 0.19 µM | 0.361 µM
37 | O=C1C2CCCCN2C(=O)N1CN1CCN(c2cccc(C(F)(F)F)c2)CC1 (stereo not drawn) | 0.0786 µM | > 1 µM | > 1 µM
38 | O=C1C2CCCCN2C(=O)N1CCN1CCN(c2cccc(Cl)c2)CC1 (stereo not drawn) | 0.128 µM | 0.375 µM | > 1 µM
39 | O=C1C2CCCN2C(=O)N1CCN1CCN(c2ccc(F)cc2)CC1 (stereo not drawn) | > 10 µM | > 1 µM | > 10 µM
40 | O=C1C2CCCCN2C(=O)N1CN1CCN(c2cccc(Cl)c2)CC1 (stereo not drawn) | 0.0577 µM | 0.135 µM | > 10 µM
41 | O=C1C2CCCN2C(=O)N1CCCCN1CCN(c2ccc([N+](=O)[O-])cc2)CC1 (stereo not drawn) | > 1 µM | 0.247 µM | > 1 µM
42 | O=C1C2CCCCN2C(=O)N1CN1CCN(c2ccc([N+](=O)[O-])cc2)CC1 (stereo not drawn) | > 1 µM | > 10 µM | > 10 µM
43 | O=C1C2CCCCN2C(=O)N1CCN1CCN(c2ccc(F)cc2)CC1 (stereo not drawn) | > 10 µM | > 1 µM | > 10 µM
44 | COc1ccccc1N1CCN(CN2C(=O)C3CCCN3C2=O)CC1 (stereo not drawn) | 0.0349 µM | 0.5 µM | > 1 µM
45 | O=C1C2CCCN2C(=O)N1CCCCN1CCN(c2ccc(F)cc2)CC1 (stereo not drawn) | 0.0899 µM | 0.0472 µM | > 1 µM
46 | O=C1C2CCCN2C(=O)N1CCCN1CCN(c2ccccc2)CC1 (stereo not drawn) | 0.0192 µM | 0.0154 µM | > 1 µM
47 | O=C1C2CCCN2C(=O)N1CN1CCN(c2ccccc2)CC1 (stereo not drawn) | 0.0853 µM | 1 µM | > 10 µM
